{
  "source": "paper PMC3674157",
  "about": "(European journal of medicinal chemistry, 2013)",
  "format_in_all_cases": "cell-based",
  "key": {"[1]": {"test_system": "HeLa human cervical carcinoma cells", "test": "High-content analysis of mitotic arrest in HeLa cells", "settings": "for MDEC Nuclear condensation / MDEC Tubulin intensity: HCS assay, minimum detectable effective concentration; for mitotic arrest phenotype (immunostaining of α-tubulin, phosphohistone H3, Hoechst 33342): 1a 62 nM, 2c 940 nM, 3a 470 nM"}, "[2]": {"test_system": "MDA-MB-231 human breast cancer cells", "test": "Wound healing", "settings": "three different concentrations"}, "[3]": {"test_system": "REH human acute lymphoblastic leukemia cells", "test": "REH cytotoxicity, MTT assay", "settings": "REH and JURKAT versus NIH3T3, HUVEC"}},
  "data": [
    {"smiles": "O=C(/C=C/c1ccccc1)c1ccccc1", "note": "[Compound 2a, 1,3-diphenylprop-2-en-1-one]", "values": [
      {"measurement": "MDEC Nuclear condensation", "setting": "[1]", "result": ">50,000 nM"},
      {"measurement": "MDEC Tubulin intensity", "setting": "[1]", "result": ">50,000 nM"}
    ]},
    {"smiles": "COc1ccc(/C=C/C(=O)c2ccc3c(c2)OCO3)c(OC)c1OC", "note": "[Compound 2d, (2E)-1-(1’,3’-benzodioxol-5-yl)-3-(2,3,4-trimethoxyphenyl)-2-propen-1-one]", "values": [
      {"measurement": "MDEC Nuclear condensation", "setting": "[1]", "result": ">50,000 nM"},
      {"measurement": "MDEC Tubulin intensity", "setting": "[1]", "result": ">50,000 nM"}
    ]},
    {"smiles": "COc1cc2c(c(OC)c1OC)-c1ccc(OC)c(=O)cc1[C@@H](NC(C)=O)CC2", "note": "[Compound 1a, colchicine, reference compound]", "values": [
      {"measurement": "cell migration in the scratch wound assay", "setting": "[2]", "result": "significantly inhibited cell migration"},
      {"measurement": "mitotic arrest phenotype (immunostaining of α-tubulin, phosphohistone H3, Hoechst 33342)", "setting": "[1]", "result": "tubulin disorganization, increased number of phosphohistone H3-positive cells, chromatin condensation, and nuclear fragmentation"},
      {"measurement": "MDEC Nuclear condensation", "setting": "[1]", "result": "12.0 ± 4.8", "unit": "nM"},
      {"measurement": "MDEC Tubulin intensity", "setting": "[1]", "result": "10.2 ± 3.8", "unit": "nM"}
    ]},
    {"smiles": "COc1cc(C(=O)/C=C/c2ccc3ccccc3c2)ccc1O", "note": "[Compound 2b, (2e)-3-(2-naphthyl)-1-(3'-methoxy-4'-hydroxy-phenyl)-2-propen-1-one]", "values": [
      {"measurement": "MDEC Nuclear condensation", "setting": "[1]", "result": "2,200 ± 700 nM"},
      {"measurement": "MDEC Tubulin intensity", "setting": "[1]", "result": "1,100 ± 200 nM"}
    ]},
    {"smiles": "COc1cc(C(=O)/C=C/c2ccc3ccccc3c2)cc(OC)c1OC", "note": "[Compound 2c, (2E)-1-(3’,4’,5’-trimethoxyphenyl)-3-(2-naphthyl)-2-propen-1-one]", "values": [
      {"measurement": "cell migration in the scratch wound assay", "setting": "[2]", "result": "significantly inhibited cell migration"},
      {"measurement": "selectivity, nontransformed cells (NIH3T3, HUVEC, PBMC) compared with the two human tumor cell lines", "setting": "[3]", "result": "45 – 100 fold"},
      {"measurement": "mitotic arrest phenotype (immunostaining of α-tubulin, phosphohistone H3, Hoechst 33342)", "setting": "[1]", "result": "tubulin disorganization, increased number of phosphohistone H3-positive cells, chromatin condensation, and nuclear fragmentation"},
      {"measurement": "MDEC Nuclear condensation", "setting": "[1]", "result": "317 ± 23", "unit": "nM"},
      {"measurement": "MDEC Tubulin intensity", "setting": "[1]", "result": "283 ± 52", "unit": "nM"}
    ]},
    {"smiles": "COc1cc(C(=O)/C=C/c2ccc(N(C)C)cc2)cc(OC)c1OC", "note": "[Compound 3a, (2E,Z)-1-(3’,4’,5’-trimethoxyphenyl)-3-(4-dimethylaminophenyl)-2-propen-1-one]", "values": [
      {"measurement": "cell migration in the scratch wound assay", "setting": "[2]", "result": "significantly inhibited cell migration"},
      {"measurement": "selectivity, nontransformed cells (NIH3T3, HUVEC, PBMC) compared with the two human tumor cell lines", "setting": "[3]", "result": "45 – 100 fold"},
      {"measurement": "mitotic arrest phenotype (immunostaining of α-tubulin, phosphohistone H3, Hoechst 33342)", "setting": "[1]", "result": "tubulin disorganization, increased number of phosphohistone H3-positive cells, chromatin condensation, and nuclear fragmentation"},
      {"measurement": "MDEC Nuclear condensation", "setting": "[1]", "result": "217 ± 67", "unit": "nM"},
      {"measurement": "MDEC Tubulin intensity", "setting": "[1]", "result": "139 ± 13", "unit": "nM"}
    ]}
  ]
}
